These results are taken from publication PMC3206071, “Characterization of a Truncated Metabotropic Glutamate Receptor in a Primitive Metazoan, the Parasitic Flatworm Schistosoma mansoni” (PLoS ONE, 2011).

Assay [1] concerns the target T1, SmGBP (S. mansoni glutamate-binding protein) (Schistosoma mansoni, UniProt E2IFW0). Put plainly: [3H]glutamate radioligand competition at […], purified SmGBP-His.
Assay [2] addresses T1, SmGBP (S. mansoni glutamate-binding protein). Described as above. The conditions noted are these: read-out: % inhibition at 10 mM.
For assay [3] the target is unchanged. In words: [3H]glutamate radioligand competition with unlabelled glutamate, PEG precipitation, purified SmGBP-His.

Broadly, the inhibition is the drop in the measured response relative to a control, in per cent. In general, IC50 refers to the midpoint of a concentration-inhibition curve.

T1 sequence (E2IFW0 entry or part of it): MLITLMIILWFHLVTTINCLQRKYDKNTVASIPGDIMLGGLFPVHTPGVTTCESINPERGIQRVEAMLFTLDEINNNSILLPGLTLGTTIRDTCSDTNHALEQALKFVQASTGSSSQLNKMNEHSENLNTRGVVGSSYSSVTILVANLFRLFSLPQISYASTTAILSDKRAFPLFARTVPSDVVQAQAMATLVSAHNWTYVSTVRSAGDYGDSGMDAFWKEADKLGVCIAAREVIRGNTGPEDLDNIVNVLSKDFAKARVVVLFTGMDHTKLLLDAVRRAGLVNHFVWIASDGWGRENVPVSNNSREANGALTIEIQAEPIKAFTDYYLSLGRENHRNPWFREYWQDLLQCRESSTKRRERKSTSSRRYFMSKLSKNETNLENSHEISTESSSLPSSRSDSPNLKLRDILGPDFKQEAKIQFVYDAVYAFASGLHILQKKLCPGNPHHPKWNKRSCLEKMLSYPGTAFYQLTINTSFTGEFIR

In the case of `N[C@H](C(=O)O)c1cc(O)cc(O)c1` [(S)-3,5-DHPG, (S)-3,5-Dihydroxyphenylglycine], the “[3H]glutamate radioligand competition at 10 mM, purified SmGBP-His” value (from here on “[3H]glutamate radioligand competition”) in assay [1] was “also recognized some glutamatergic agents, for example, agonists DHPG and AP4 and the antagonist, MCPG”. On to `C[C@@](N)(C(=O)O)c1ccc(C(=O)O)cc1` [(S)-MCPG, (S)-a-Methyl-4-carboxyphenylglycine], for which, in assay [1], the “[3H]glutamate radioligand competition” value was “able to compete with [^3H]glutamate, AP4 (mGluR III agonist) and S)-MCPG (mGluRs I/II antagonist) being the strongest”. For `N[C@@H](CCP(=O)(O)O)C(=O)O` [L-AP4, L-(+)-2-Amino-4-phosphonobutyric acid], the “[3H]glutamate radioligand competition” value in assay [1] is “able to compete with [^3H]glutamate, AP4 (mGluR III agonist) and S)-MCPG (mGluRs I/II antagonist) being the strongest”. Turning to `N[C@@H](CC(=O)O)C(=O)O` [aspartate], the inhibition at 10000 µM in assay [2] amounted to 84%. `N[C@@H](CCC(=O)O)C(=O)O` [glutamate] yielded an IC50 in assay [3] of 300 ± 50 nM. Consider `NC(=O)CC[C@H](N)C(=O)O` [glutamine], for which the inhibition at 10000 µM in assay [2] turned out to be 77%.
